Reference: patent publication US20250236616A1, “IMMUNOMODULATING AZALIDES” (Zoetis Services LLC, priority 2021, published 2025)
Values after ≈ are worked out from the molar mass of the structure shown.

Columns and labels:
M. haemolytica = test: MIC, M. haemolytica strains; format: cell-based; conditions: Mannheimia haemolytica
Text: (§1) Primary screening of the compounds of the invention included the evaluation of antibacterial activity of analogs through determination of microbial inhibition concentration (MIC) as per CLSI guidelines. The screening panel included the relevant BRD pathogens: 1) M. haemolytica (e.g., 12726, 46571 and 49023, all AHDRCC; and 33396 (ATCC)); and 2) P. multocida (e.g., 34135 and 46572 (both AHDRCC) and 43137 (ATCC)). In some instances, H. somni (A700025K) pathogens were also included in the screening panel. The AHDRCC strains originated from the Zoetis BRD/SRD surveillance program and refer to the Animal Health Development and Research Culture Collection. In addition, the screen assessed S. aureus (29213 ATCC) as a representative Gram-positive isolate, E.faecalis (19433 ATCC) as a commensal gram-positive gastrointestinal bacterium and E. coli (100, 3110 and 25922 (ATCC)) for the evaluation of efflux potential. The screening panel BRD pathogens were assessed in determining antibacterial activity of the Formula (1) compounds.
(§2) All relevant BRD pathogens were initially screened at a top concentration of 64 μg/mL of a Formula (1) compound in an eleven-point dilution series. […] If an Example was purified further, the MICs moved […] essentially two dilutions across all strains tested in the screening panel.
(§3) In-Vitro MIC Model Compounds were analyzed for antibacterial activity against a panel of animal health specific gram-positive and gram-negative clinical strains by diluting compounds in DMSO to an appropriate stock concentration to determine the Minimal Inhibitory Concentration (MIC) via a semi-automated broth micro-dilution method (CLSI reference method) with QC strains and anti-microbial agent(s). Specifically, bacteria were grown overnight on TSA w/5% sheep blood agar plates and diluted in saline buffer to a McFarland Standard 0.5, then further diluted in cation-ion adjusted Mueller Hinton Broth to a final concentration of approximately 5×10^5 CFU/mL. 100 μL of inoculated media was added to 96-well plate(s) with 3 μL of serially diluted compound in each row. Depending on strain (see CLSI reference method), bacteria were incubated 18-22 hours at 35-37° C. in ambient air, with 5% CO2 or anaerobically (up to 48 hours).

E. coli = test: MIC, E. coli; format: cell-based; conditions: Escherichia coli
Text: as §1, §2, §3

P. multocida 46572 = test: In vivo mouse lung infection challenge model (murine efficacy), survival; set-up: species or system CD-1 female mice; conditions: 20 mg/kg subcutaneous; for % Survival: P. multocida 46572 intranasal challenge, harmonized relative to vehicle (−) and M9 (+) controls
Procedure: The challenge organism was P. multocida 46572. Target challenge concentration was 5×10^2 CFU/mouse. Isolated colonies from overnight growth (37° C. with 5% CO2) on trypticase soy agar (TSA II) blood plates were transferred to room temperature Brain Heart Infusion Broth (BHIB). The broth culture was incubated 3.5-4 hours to approximately mid-log phase of growth, as measured by forward light scatter at 600 nm (OD600, 0.200). The culture was centrifuged to collect the bacterial pellet. The pellet was re-suspended in BHIB and adjusted to provide an approximate concentration of 2.7 log 10 colony forming units (CFU) in 0.04 mL at the highest concentration. The challenge inoculum concentration was confirmed by serial dilutions of the inoculum for CFU enumeration. On Day −5, CD −1 female mice were received. Mice were given standard rodent diet and water ad libitum. On Day 0, bacterial inoculum (0.04 mL) was administered to each mouse (n=36) intranasally. Compounds of the invention were dosed at 20 mg/kg (0.1 mL) in a buffered (˜pH 5.4) propylene glycol, monothioglycerol and water solution by subcutaneous injection. Animals were observed from Days 1-10. The study was terminated on Day 10. In addition, some treatment groups were sampled at 6, 24, and 48 hours post bacterial challenge for RNA sequence analysis of lung tissue.
The murine efficacy model (P.multocida challenge) was optimized, and the treatment group size was powered to be able to observe statistically significant improvement of survival to expected ranges for immunomodulatory compounds. The experimental design was a randomized complete block design. Mice were individually identified and treatment groups comingled within a cage, with every treatment group equally represented across cages. Mortality was the primary variable. Mortality data was analyzed using a generalized mixed model with fixed effect of treatment and random effect of block. Survival time was also analyzed using the SAS PHREG (survival analysis) procedure to examine whether there were significant differences between treatment groups and the control group. Numerous compounds of the invention and M9 (positive control) were tested in this model at a dose of 20 mg/kg (Table 3). Typical percent survival for no treatment control is in the range of 0-20% based on study to study variation in challenge inoculum and rate of infection. […] Mouse survival for M9 was about 90-100%, further supporting its residual antibacterial properties against the bacterial strain.

[1] = M. haemolytica 46571, bovine efficacy challenge strain

Row | Structure (SMILES) | MIC (M. haemolytica; M. haemolytica 12726) [µg/mL] | MIC (M. haemolytica; M. haemolytica 33396) [µg/mL] | MIC (M. haemolytica; [1]) [µg/mL] | MIC (E. coli; E. coli 25922) [µg/mL] | MIC (E. coli; E. coli W3110) [µg/mL] | % Survival (P. multocida 46572) [%] | Mouse survival (P. multocida 46572; M9 positive control)
1 | CC[C@H]1OC(=O)[C@H](C)[C@@H](O)[C@H](C)[C@@H](O[C@@H]2O[C@H](C)C[C@H](N(C)S(=O)(=O)c3ccccc3)[C@H]2Oc2ccc(OC)cc2)[C@](C)(O)C[C@@H](C)CN[C@H](C)[C@@H](O)[C@]1(C)O [Example A-9, N-((2S,3R,4S,6R)-2-(((2R,3S,4R,5R,8R,10R,11R,12S,13S,14R)-2-ethyl-3,4,10,13-tetrahydroxy-3,5,8,10, 12, 14-hexamethyl-15-oxo-1-oxa-6-azacyclopentadecan-11-yl)oxy)-3-(4-methoxyphenoxy)-6-methyltetrahydro-2H-pyran-4-yl)-N-methylbenzenesulfonamide] | > 64 | > 64 | > 64 | > 64 | > 64 | 41 | 
2 | CCCNC[C@]1(O)[C@H](C)O[C@@H](O[C@H]2[C@H](C)[C@@H](O[C@@H]3O[C@H](C)C[C@H](N(C)S(=O)(=O)c4ccc(C)cc4)[C@H]3O)[C@](C)(O)C[C@@H](C)CN[C@H](C)[C@@H](O)[C@](C)(O)[C@@H](CC)OC(=O)[C@@H]2C)C[C@@]1(C)OC [Example B-26, N-((2S,3R,4S,6R)-2-(((2R,3S,4R,5R,8R,10R,11R,12S,13S,14R)-2-ethyl-3,4,10-trihydroxy-13-(((2R,4R,5S,6S)-5-hydroxy-4-methoxy-4,6-dimethyl-5-((propylamino)methyl)tetrahydro-2H-pyran-2-yl)oxy)-3,5,8,10,12,14-hexamethyl-15-oxo-1-oxa-6-azacyclopentadecan-11-yl)oxy)-3-hydroxy-6-methyltetrahydro-2H-pyran-4-yl)-N,4-dimethylbenzenesulfonamide] | > 64 | > 64 | > 64 | > 64 | > 64 | 37 | 
3 | CCCNC[C@]1(O)[C@H](C)O[C@@H](O[C@H]2[C@H](C)[C@@H](O[C@@H]3O[C@H](C)C[C@H](N(C)S(=O)(=O)Nc4ccc(C(F)(F)F)cc4)[C@H]3O)[C@](C)(O)C[C@@H](C)CN[C@H](C)[C@@H](O)[C@](C)(O)[C@@H](CC)OC(=O)[C@@H]2C)C[C@@]1(C)OC [Example B-50, (2R,3S,4R,5R,8R,10R,11R,12S,13S, 14R)-2-ethyl-3,4,10-trihydroxy-13-[(2R,4R,5S,6S)-5-hydroxy-4-methoxy-4,6-dimethyl-5-(propylaminomethyl)oxan-2-yl]oxy-11-[(2S,3R,4S,6R)-3-hydroxy-6-methyl-4-[methyl-[[4-(trifluoromethyl)phenyl]sulfamoyl]amino]oxan-2-yl]oxy-3,5,8, 10, 12, 14-hexamethyl-15-oxo-1-oxa-6-azacyclopentadecane] | > 64 | > 64 | > 64 | > 64 | > 64 | 88 | 
4 | CC[C@H]1OC(=O)[C@H](C)[C@@H](O[C@H]2C[C@@](C)(OC)[C@](O)(CN3CCCCC3)[C@H](C)O2)[C@H](C)[C@@H](O[C@@H]2O[C@H](C)C[C@H](N(C)S(=O)(=O)c3ccc(Cl)cc3)[C@H]2O)[C@](C)(O)C[C@@H](C)CN[C@H](C)[C@@H](O)[C@]1(C)O [Example C-4, 4-chloro-N-((2S,3R,4S,6R)-2-(((2R,3S,4R,5R,8R,10R,11R,12S,13S,14R)-2-ethyl-3,4,10-trihydroxy-13-(((2R,4R,5S,6S)-5-hydroxy-4-methoxy-4,6-dimethyl-5-(piperidin-1-ylmethyl)tetrahydro-2H-pyran-2-yl)oxy)-3,5,8, 10, 12, 14-hexamethyl-15-oxo-1-oxa-6-azacyclopentadecan-11-yl)oxy)-3-hydroxy-6-methyltetrahydro-2H-pyran-4-yl)-N-methylbenzenesulfonamide] | > 128 | > 128 | > 128 | > 128 | > 128 | 76 | 
5 | CC[C@H]1OC(=O)[C@H](C)[C@@H](O[C@H]2C[C@@](C)(OC)[C@](O)(CN3CCCCC3)[C@H](C)O2)[C@H](C)[C@@H](O[C@@H]2O[C@H](C)C[C@H](N(C)S(=O)(=O)Nc3ccc(C(F)(F)F)cc3)[C@H]2O)[C@](C)(O)C[C@@H](C)CN[C@H](C)[C@@H](O)[C@]1(C)O [Example C-11, (2R,3S,4R,5R,8R,10R,11R,12S, 13S, 14R)-2-ethyl-3,4, 10-trihydroxy-13-[(2R,4R,5S,6S)-5-hydroxy-4-methoxy-4,6-dimethyl-5-(piperidin-1-ylmethyl)oxan-2-yl]oxy-11-[(2S,3R,4S,6R)-3-hydroxy-6-methyl-4-[methyl-[[4-(trifluoromethyl)phenyl]sulfamoyl]amino]oxan-2-yl]oxy-3,5,8, 10, 12, 14-hexamethyl-15-oxo-1-oxa-6-azacyclopentadecane] | > 64 | > 64 | > 64 | > 64 | > 64 | 56 | 
6 | CCCNC[C@]1(O)[C@H](C)O[C@@H](O[C@H]2[C@H](C)[C@@H](O[C@@H]3O[C@H](C)C[C@H](NC)[C@H]3O)[C@](C)(O)C[C@@H](C)CN[C@H](C)[C@@H](O)[C@](C)(O)[C@@H](CC)OC(=O)[C@@H]2C)C[C@@]1(C)OC [Example M9, (2R,3S,4R,5R,8R,10R,11R,12S,13S,14R)-2-ethyl-3,4, 10-trihydroxy-13-(((2R,4R,5S,6S)-5-hydroxy-4-methoxy-4,6-dimethyl-5-((propylamino)methyl)-tetrahydro-2H-pyran-2-yl)oxy)-11-(((2S,3R,4S,6R)-3-hydroxy-6-methyl-4-(methylamino)tetrahydro-2H-pyran-2-yl)oxy)-3,5,8,10,12,14-hexamethyl-1-oxa-6-azacyclopentadecan-15-one] | 22 (≈ 27.8 µM) |  |  | > 64 | 64 (≈ 80.8 µM) |  | 90-100%
